These results are taken from patent US8835440B2, “Cyclic pyrimidin-4-carboxamides as CCR2 receptor antagonists for treatment of inflammation, asthma and COPD” (Boehringer Ingelheim International GmbH, priority 2008, dated 2014).

The assay concerns the target T1, CCR2 (Homo sapiens, UniProt P41597).
T1 construct: Membranes were prepared from THP-1 cells; endogenous in cells; host or cells: THP-1 cells (membrane preparation)
T1 sequence (P41597 1-360 isoform P41597-2): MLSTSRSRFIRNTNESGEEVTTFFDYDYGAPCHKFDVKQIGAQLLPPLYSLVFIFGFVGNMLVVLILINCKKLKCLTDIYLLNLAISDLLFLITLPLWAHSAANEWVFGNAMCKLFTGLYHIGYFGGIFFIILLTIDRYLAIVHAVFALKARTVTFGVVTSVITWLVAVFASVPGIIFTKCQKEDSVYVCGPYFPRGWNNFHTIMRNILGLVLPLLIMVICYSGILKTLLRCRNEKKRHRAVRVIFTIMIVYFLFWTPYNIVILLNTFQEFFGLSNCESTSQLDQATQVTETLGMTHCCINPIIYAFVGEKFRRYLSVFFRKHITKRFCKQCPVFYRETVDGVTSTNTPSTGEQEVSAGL
In words: CCR2 receptor membrane binding assay ([125I]MCP-1, THP-1 cell membranes, SPA beads). As to conditions: for remaining activity at 10 µM: @ 10 μM test compound, THP-1 membranes, read-out: CCR2 % ctrl @ 10 μM; for Ki: dissociation constant hKi, [125I]MCP-1 binding to THP-1 membranes. As to the method:
The above exemplary substances have been tested for binding to CCR2 using a binding assay as outlined herein below:
THP-1 cells (human acute monocytic leukaemia cells) were cultured under standardized conditions at 37° C. and 5% CO2 in a humidified incubator. THP-1 cells were cultivated in RPMI 1640 medium (Gibco 21875) containing 1% MEM-NEAA (Gibso 11140) 2 mM L-glutamine, 1.5 g/L sodium bicarbonate, 4.5 g/L glucose, 10 mM HEPES and 1.0 mM sodium pyruvate, 90%; 10% fetal calf serum (FCS Gibco 10500-064).
Membranes were prepared from THP-1 cells. THP-1 cells were centrifuged at 300×g at 4° C. for 10 min. The cell pellet was resuspendet in Phosphate Buffer Saline (PBS, including 10 μM Pefabloc and a protease inhibitor mix ‘complete’, Boehringer Mannheim (1 tablet/50 ml)), to a concentration of […]. The membrane preparation was performed by disrupting the cells by nitrogen […] (at 50 bar, for 1 h) in a “Nitrogen Bombe” (Parr Instrument). Cell debris was removed by centrifugation (800×g at 4° C., 1 min). The supernatant was centrifuged at 80000×g, 4° C. for 30 min to sediment the cell membranes. Usually 50 mg of protein (Bradford assay) were yielded from 1×10E9 cells. The membranes were resuspendet in 25 mM HEPES, 25 mM MgCl2, 1 mM CaCl2, 10% Glycerine for storage in aliquots at −80° C. in 25 mM HEPES, 25 mM MgCl2, 1 mM CaCl2, 10% Glycerine and stored at −80° C.
Receptor Membrane Binding Assay:
Perkin Elmer NEX 332 Jod 125 MCP-1, Stock: 2200 Ci/mmol solved in 2000 μl assay buffer, stored at −20° C. THP-1 membrane were adjusted with 25 mM HEPES, pH 7.2; 5 mM MgCl2; 0.5 mM CaCl2; 0.2% BSA assay buffer to a concentration of […]. Amersham Biosciences PVT-WGA Beads (RPNQ0001) were adjusted with assay buffer to a concentration of 0.24 mg/30 μl. For preparation of the membrane-bead-suspension membranes and beads were incubated for 30 min at RT under rotation (60 rpm) with a ratio of 1:2. Test compounds dissolved in 100% DMSO to a concentration of 10 mM and are further diluted with 100% DMSO to 1 mM. All additional compound dilutions were obtained with assay buffer, final 1% DMSO. Compounds, membrane-bead-suspension and [125I]MCP-1 (ca. 25000 cpm/10 μl) were incubated. Bound radioactivity was determined by scintillation counter after 8 h. Determination of affinity of test compounds (dissociation constant hKi) is calculated by iterative fitting of experimental data using the “easy sys” program, which is based on law of mass action (Schittkowski K. (1994), Numerische Mathematik, Vol. 68, 129-142).

As for `Cc1c(NCCc2ccc(Cl)cc2)ncnc1C(=O)N1CCC(N2CCC(O)CC2)CC1` [Example 124], the remaining activity at 10 µM was determined as 20% and the Ki came to 361 nM.
Turning to `Cc1c(NCc2ccc(Cl)c(Cl)c2)ncnc1C(=O)N1CCC(N2CC[C@@H](NS(C)(=O)=O)C2)CC1` [Example 259], the remaining activity at 10 µM was 16% and the affinity corresponds to a Ki of 277 nM.
As to `Cc1c(NCC2CCCc3ccccc32)ncnc1C(=O)N1CCC(N2CCC(N(C)S(C)(=O)=O)CC2)CC1` (stereo not drawn) [Example 148], the remaining activity at 10 µM worked out at 4% and affinity was put at a Ki of 119 nM.
The molecule `Cc1c(NCC2CCC(c3cccc(C(F)(F)F)c3)O2)ncnc1C(=O)N1CCC(N2CCC(N(C)S(C)(=O)=O)CC2)CC1` (stereo not drawn) [Example 159pa] came in with a Ki of 32 nM.
Consider `Cc1c(NCCc2ccc(Cl)c(Cl)c2)ncnc1C(=O)N1CCC(N2CCC[C@H](C(=O)O)C2)CC1` [Example 179], for which the remaining activity at 10 µM is 42% and the Ki was found to be 1640 nM.
Regarding `Cc1ccc(C2CCCC(CNc3ncnc(C(=O)N4CCC(N5CCC(N(C)S(C)(=O)=O)CC5)CC4)c3C)C2)cc1` (stereo not drawn) [Example 159za], the affinity corresponds to a Ki of 6 nM.
As for `Cc1c(NCCc2ccc(Cl)c(Cl)c2)ncnc1C(=O)N1CCC(N2CCC(N(C)S(C)(=O)=O)CC2)CC1` [Example 53], the remaining activity at 10 µM is 4% and affinity was put at a Ki of 18 nM.
Regarding `Cc1c(NCC2CCCC(c3ccc(F)cc3)C2)ncnc1C(=O)N1CCC(N2CCC(N(C)S(C)(=O)=O)CC2)CC1` (stereo not drawn) [Example 159z], the affinity corresponds to a Ki of 11 nM.
With `Cc1c(NCCc2ccc(C(C)C)cc2)ncnc1C(=O)N1CCC(N2CCC(O)CC2)CC1` [Example 106], the remaining activity at 10 µM worked out at 13% and affinity was put at a Ki of 405 nM.
The corresponding values for `Cc1c(NCc2cccc(-c3ccccc3)c2)ncnc1C(=O)N1CCC(N2CCCC(O)C2)CC1` (stereo not drawn) [Example 100] are 18% and 395 nM.
Taken in the same sequence, the figures for `Cc1c(NCC2COc3ccccc3C2)ncnc1C(=O)N1CCC(N2CCC(NS(C)(=O)=O)CC2)CC1` (stereo not drawn) [Example 71] were 12% and 117 nM.
Taken in the same sequence, the figures for `COC1CCN(C2CCN(C(=O)c3ncnc(NCc4ccc(C(C)C)cc4)c3C)CC2)CC1` [Example 94] were 8% and 211 nM.
As for `Cc1c(NC[C@H]2CCC[C@H](c3ccccc3)C2)ncnc1C(=O)N1CCC(N2CCC(N(C)S(C)(=O)=O)CC2)CC1` [Example 150], the remaining activity at 10 µM stood at 3% and the Ki was determined as 12 nM.
The corresponding values for `Cc1c(NCCc2ccc(Cl)c(Cl)c2)ncnc1C(=O)N1CCC(N2CCC(NS(C)(=O)=O)CC2)CC1` [Example 168] are 9% and 51 nM.
The corresponding values for `COC1CCN(C2CCN(C(=O)c3ncnc(NCC4CCN(c5ccccc5)CC4)c3C)CC2)CC1` [Example 96] are 21% and 939 nM.
`CO[C@H]1COCC[C@H]1NC1CCN(C(=O)c2ncnc(NC[C@H]3C[C@@H](c4ccccc4)C3)c2C)CC1` [Example 275dd] returned a Ki of 40 nM.
On to `CO[C@@H]1COCC[C@@H]1NC1CCN(C(=O)c2nc(C)nc(NC[C@H]3C[C@H](c4ccccc4)C3)c2C)CC1` [Example 275de], for which the Ki stood at 16 nM.
`CCc1c(NCc2cccc(-c3ccccc3)c2)ncnc1C(=O)N1CCC(N2CCC(O)CC2)CC1` [Example 282]: the remaining activity at 10 µM is 39% and the affinity corresponds to a Ki of 1530 nM.
Turning to `O=C(c1ncnc(NCc2cccc(-c3ccccc3)c2)c1Br)N1CCC(N2CCC(O)CC2)CC1` [Example 278], the remaining activity at 10 µM was 32% and the Ki is 1080 nM.
The corresponding values for `Cc1nc(NCc2ccc(C(C)(C)C)cc2)c(C)c(C(=O)N2CCC(N3CCC(S(=O)(=O)N(C)C)CC3)CC2)n1` [Example 207] are 35% and 1180 nM.
Taken in the same sequence, the figures for `Cc1c(NCC2CCN(c3ccccc3)C2)ncnc1C(=O)N1CCC(N2CCC(NS(C)(=O)=O)CC2)CC1` (stereo not drawn) [Example 74] were 2% and 71 nM.
Regarding `Cc1c(NCc2ccc(Cl)c(Cl)c2)ncnc1C(=O)N1CCC(N2CCC(NS(C)(=O)=O)CC2)CC1` [Example 72], the remaining activity at 10 µM amounted to 7% and the affinity corresponds to a Ki of 81 nM.
With `Cc1c(NCc2ccc(C(C)(C)C)cc2)ncnc1C(=O)N1CCC(N2CCC(Oc3ccc(F)c(F)c3)CC2)CC1` [Example 203], the remaining activity at 10 µM is 11% and the affinity, expressed as Ki, was 641 nM.
In the case of `Cc1nc(NCc2ccc(Cl)c(Cl)c2)c(C)c(C(=O)N2CCC(N3CCC(NS(C)(=O)=O)CC3)CC2)n1` [Example 88], the remaining activity at 10 µM turned out to be 6% and affinity was put at a Ki of 58 nM.
Turning to `Cc1c(NCc2ccc(C(C)(C)C)cc2)ncnc1C(=O)N1CCCC(N2CCCC2)CC1` (stereo not drawn) [Example 163], the remaining activity at 10 µM was determined as 32% and the inhibition constant Ki is 1560 nM.
The corresponding values for `CCS(=O)(=O)N(C)C1CCN(C2CCN(C(=O)c3ncnc(NCC4CCN(c5ccccc5)CC4)c3C)CC2)CC1` [Example 40] are 9% and 174 nM.
`CO[C@@H]1COCC[C@@H]1NC1CCN(C(=O)c2ncnc(NC[C@H]3CCC[C@@H](c4ccccc4)C3)c2C)CC1` [Example 275di]: the Ki was found to be 1 nM.
As to `Cc1c(Oc2ccc(C(C)(C)C)cc2)ncnc1C(=O)N1CCC(N2CCC(N(C)S(C)(=O)=O)CC2)CC1` [Example 291], the remaining activity at 10 µM came to 32% and the affinity corresponds to a Ki of 3120 nM.
Taken in the same sequence, the figures for `Cc1c(NCc2ccc(Cl)c(Cl)c2)ncnc1C(=O)N1CCC(N2CCOCC2)CC1` [Example 107] were 12% and 232 nM.
`Cc1ccc(CNc2ncnc(C(=O)N3CCC(N4CCOCC4)CC3)c2C)cc1Cl` [Example 43]: the remaining activity at 10 µM is 17% and the Ki was found to be 566 nM.
Molecule `Cc1c(NCC2Cc3cc(Cl)ccc3O2)ncnc1C(=O)N1CCC(N2CCC(N(C)S(C)(=O)=O)CC2)CC1` (stereo not drawn) [Example 159rb] displayed a Ki of 54 nM.
`Cc1c(NCc2ccc(C(C)(C)C)cc2)ncnc1C(=O)N1CCC(N2C3CCC2CC(O)C3)CC1` (stereo not drawn) [Example 228gm] had a Ki of 28 nM.
For `Cc1c(NCCc2ccc(Cl)c(Cl)c2)ncnc1C(=O)N1CCC(N2CCCC(O)CC2)CC1` (stereo not drawn) [Example 247], the remaining activity at 10 µM stood at 6% and the inhibition constant (Ki) came to 149 nM.
For `Cc1c(NCCc2ccc(Cl)c(Cl)c2)ncnc1C(=O)N1CCC(C(N)=O)(N2CCCCC2)CC1` [Example 252], the remaining activity at 10 µM is 6% and the affinity corresponds to a Ki of 38 nM.
`Cc1c(NCc2ccc3occc3c2)ncnc1C(=O)N1CCC(N2CCC(O)CC2)CC1` [Example 29]: the remaining activity at 10 µM came to 40% and affinity was put at a Ki of 2100 nM.
As for `Cc1c(NCc2ccc(Cl)c(C(F)(F)F)c2)ncnc1C(=O)N1CCC(N2CCC(O)CC2)CC1` [Example 125], the remaining activity at 10 µM was determined as 25% and the Ki came to 446 nM.
The molecule `Cc1c(NCC2(c3ccccc3)CCCCC2)ncnc1C(=O)N1CCC(N2CCC(N(C)S(C)(=O)=O)CC2)CC1` [Example 159t] yielded a Ki of 1200 nM.
In the case of `Cc1c(NC[C@H]2C[C@H](c3ccc(Cl)cc3)C2)ncnc1C(=O)N1CCC(N2CCC(N(C)S(C)(=O)=O)CC2)CC1` [Example 159tb], the Ki came out at 13 nM.
Consider `COC1CCN(C2CCN(C(=O)c3ncnc(NCc4ccc(Cl)c(F)c4)c3C)CC2)CC1` [Example 95], for which the remaining activity at 10 µM is 2% and the Ki was determined as 170 nM.
For `Cc1ccc(C2CCC(CNc3ncnc(C(=O)N4CCC(N5CCC(N(C)S(C)(=O)=O)CC5)CC4)c3C)O2)cc1F` (stereo not drawn) [Example 159na], affinity was put at a Ki of 21 nM.

What is called Ki is the dissociation constant of the complex between target and ligand, obtained from inhibition or displacement.
